Experimental data reported in US20260263485A1, “AMINOSTEROL COMPOUNDS, AMINOSTEROL-CYCLODEXTRIN FORMULATIONS, AND METHODS OF USING THE SAME” (Enterin, Inc., priority 2022, published 2026).

Experiments:
[1] = Identification of metabolites of ENT-03S in rat bile samples (UPLC-MS/MS); settings: bile duct cannulated male SD rats, 10 mg/kg ENT-03S SC; for Metabolite peak area percentages Rat Bile: pooled bile 0-24 h, relative XIC peak area; for Metabolite peak area Rat Bile: pooled bile, XIC peak area
Description: An equal volume of rat bile samples (50 μL) were taken from different animals at different time points following administration of ENT-03S. 50 μL of matrix was mixed with 200 μL of methanol (containing 0.1% formic acid), vortexed for 100 seconds and then centrifuged at 16,000 g for 10 minutes at 4° C. to precipitate proteins. 100 μL of the supernatant was transferred to a new tube and the supernatant diluted with 100 μt, pure water, mixed well and analyzed using UPLC-MS/MS.
The peak area percentages of parent drug and each metabolite were determined by semi-quantitative estimation using the extracted ion chromatogram peak areas of all detected drug-related material in the sample. Metabolites with percentage of peak area>10% are proposed as major metabolites of ENT-03S.
Bile samples were obtained from male rats at various time points following a 10 mg/kg dose of ENT-03S via subcutaneous administration in bile dicut cannulated male SD rats as detailed in Table 10. The samples were transferred on dry ice and stored at −80° C. prior to use
Study design: An equal volume of rat bile samples (50 μL) were taken from different animals at different time points following administration of ENT-03S in study No.: PII-DMPK-ETR-21-001. 50 μL of matrix was mixed with 200 μL of methanol (containing 0.1% formic acid), vortexed for 100 seconds and then centrifuged at 16,000 g for 10 minutes at 4° C. to precipitate proteins. 100 μL of the supernatant was transferred to a new tube and the supernatant diluted with 100 μL pure water, mixed well and analyzed using UPLC-MS/MS.
Sample preparation: For bile samples, an equal volume of samples (50 μL) are taken from different animals at various time points after the administration of each group of samples, and the same group of samples are mixed thoroughly.
Data Analysis: UPLC-MS/MS was used for sample analysis, and was conducted using a DionexUltiMate 3000/Vanquish UHPLC system. For mass spectrometry (MS), all analysis was carried out with a Q-Exactive instrument (Thermo Fisher). A full MS scan was used to trigger the data dependent acquisition (DDA) of MS/MS scan spectra. Compound dependent parameters were optimized by ENT-03S. DDA settings were used to trigger acquisition of MS^2 spectra for ions whose intensity is in top 5 of all, with exclusion of impurity ions (m/z 149.02332, m/z 279.15909, m/z 391.28429 and m/z 445.12003), after 3 occurrences for 10 s. Dynamic exclusion settings: automatic exclusion of the ions which have been taken.
Data Analysis: The analysis was carried out using a thermo Fisher Scientific Q Exactive instrument. Full MS scan was used to trigger the data dependent acquisition (DDA) of MS/MS scan spectra. Compound dependent parameters were optimized by ENT-03S. DDA settings were used to trigger acquisition of MS^2 spectra for ions whose intensity was in the top 5 of all, with exclusion of ions (m/z 149.02332, m/z 279 1 5909, m/z 391.28429 and m/z 445 12003), after 3 occurrences for 10 s. Data was acquired and processed using Xcalibur v4.1 software (Thermo Fisher Scientific) and Compound Discoverer 3.1 (Thermo Fisher Scientific) and Excel (Microsoft 2016).

[2] = cited from earlier work
[3] = Plasma pharmacokinetics of ENT-03S cyclodextrin formulation after subcutaneous injection; format: in vivo, rat; settings: Sprague-Dawley, rat; 20% beta-cyclodextrin formulation; SC Dose 10 mg/kg; male SD rats; plasma; mean; read-out: Tmax Mean
Description: In this example, ENT-03S was formulated with unmodified beta-cyclodextrin at a concentration of 25 mg/ml ENT-03, and 20% beta-cyclodextrin, pH 7.5, buffered with phosphate.
Male Sprague-Dawley rats were administered the ENT-03-cyclodextrin formulation subcutaneous at a dose of 10 mg/kg. Blood samples were drawn from the tail vein at various times, the concentrations of ENT-03 determined, and PK parameters determined.

[4] = system: PTP1B; settings: in vitro, bank of commercially available phosphatases; cited from earlier work
[5] = Identification of metabolites of ENT-03S in rat plasma and urine samples (UPLC-MS/MS); format: in vivo
Description: An equal number of rat urine (50 μL) were taken from different animals at various time points following administration of ENT-03S. For plasma samples, the Hamilton pooling method was used.
Study design: An equal number of rat urine (50 μL) samples were taken from different animals at various time points from study No.: PH-DMPK-ETR-21-001 following administration of ENT-03S. For plasma samples, the Hamilton pooling method was used.
The samples were then analysed using UPLC-MS/MS.
Compound dependent parameters were optimized by ENT-03S.

What does the source list for C[C@H](CCC[C@H](C)C(=O)O)[C@H]1CCC2C3C(CC[C@@]21C)[C@@]1(C)CC[C@H](NCCCNCCCCNCCC(=O)O)C[C@@H]1C[C@H]3O (stereo partly drawn) [ENT-25S]?
Metabolite peak area percentages Rat Bile [1]: 9.52%; Metabolite peak area Rat Bile [1]: 1.17E+07

Which “Metabolite peak area percentages Rat Bile” value [1] does the source give for C[C@H](CCC(=O)NCCS(=O)(=O)O)[C@H]1CCC2C3C(CC[C@@]21C)[C@@]1(C)CC[C@H](NCCC(=O)O)C[C@@H]1C[C@H]3O (some centres unmarked) [M3-RB] here?
Its value is 2.27%.

What about the “Metabolite peak area Rat Bile” value [1] of the same compound?
Its value is 2.80E+06.

Which results are given for C[C@H](C[C@H](C)C(=O)O)[C@H]1CCC2C3C(CC[C@@]21C)[C@@]1(C)CC[C@H](NCCC(=O)O)C[C@@H]1C[C@H]3O (some centres unmarked) [M16-RB]?
Metabolite peak area percentages Rat Bile [1]: 0.69%; Metabolite peak area Rat Bile [1]: 8.45E+05

Which “Metabolite peak area percentages Rat Bile” value [1] does the source give for C[C@H](CCC[C@H](C)C(=O)O)[C@H]1CCC2C3C(CC[C@@]21C)[C@@]1(C)CC[C@H](NCCCNCCCC(=O)O)C[C@@H]1C[C@H]3O (some centres unmarked) [M10-PU/M14-RB] here?
Its value is 3.23%.

And the “Metabolite peak area Rat Bile” value [1]?
Its value is 3.98E+06.

Which hepatic steatosis ([2]; in vivo) does the source give for CC(CCC[C@@H](C)[C@H]1CCC2C3C(CC[C@@]21C)[C@@]1(C)CC[C@H](NCCCNCCCCNCCCN)C[C@@H]1C[C@H]3O)C(=O)O (single isomer, unassigned) [ENT-03] here?
Its hepatic steatosis is “reduces hepatic steatosis”.

What about the insulin sensitivity ([2]; in vivo) of the same compound?
Its insulin sensitivity is “acutely increases insulin sensitivity”.

What about the “food intake and body weight” value ([2]; peripheral and central administration to lean rodents) of the same compound?
The value was “prolonged reduction in food intake and body weight”.

What about the Tmax [3] of the same compound?
The Tmax was 2 h.

And the “inhibition of PTP1B relative to the other phosphatases assayed” value [4]?
Its value is “most potently inhibited”.

For C[C@H](CCC(=O)O)[C@H]1CCC2C3C(CC[C@@]21C)[C@@]1(C)CC[C@H](NCCCNCCCCNCCCN)C[C@@H]1C[C@H]3O (single isomer, unassigned) [ENT-17], which “Metabolite peak area percentages Rat Plasma Male” value ([5]; pooled male SD rat plasma 0.25-24 h after 10 mg/kg ENT-03S SC, relative XIC peak area) is on record?
The value was 0.55%.

What about the “Metabolite peak area Rat Plasma Male” value ([5]; pooled male SD rat plasma after 10 mg/kg ENT-03S SC, XIC peak area) of the same compound?
The value was 3.62E+06.

What about the “Metabolite peak area percentages Rat Urine Male” value ([5]; pooled male SD rat urine 0-24 h after 10 mg/kg ENT-03S SC, relative XIC peak area, “—”: not observed) of the same compound?
Its value is 7.56%.

What about the “Metabolite peak area Rat Urine Male” value ([5]; pooled male SD rat urine after 10 mg/kg ENT-03S SC, XIC peak area, “—”: not observed) of the same compound?
The value was 1.70E+05.
